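48-hour exposure; five concentrations; linearly interpolated endpoints. At the GI50, growth is halved. The concentration for full growth arrest is given as TGI.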

Test systems include HL-60(TB) leukemia; KM12 colon; M14 melanoma; T-47D breast; SR leukemia; SF-295 CNS; DU-145 prostate; UO-31 renal; NCI-H226 lung; CCRF-CEM leukemia.
What all share (experiment): NCI-60 cell line screen, 48 h

Turning to `Cc1nc2ccc(-n3ncc(C(=O)c4cc5ccccc5[nH]4)c3N)cc2[nH]1`, the GI50 in the assay with HL-60(TB) leukemia was 11.9 µM; in the assay on KM12 colon it was 3.53 µM; in the assay with M14 melanoma, 12.2 µM; with T-47D breast, 6.74 µM; in the assay on SR leukemia, 2.82 µM; in the assay with SF-295 CNS, 4.87 µM. The GI50 was 13.1 µM in the assay on DU-145 prostate, 10 µM in the assay with UO-31 renal, 10.5 µM with NCI-H226 lung and 9.24 µM with CCRF-CEM leukemia. Moreover, the TGI in the assay with HL-60(TB) leukemia came to 45.9 µM; in the assay with KM12 colon it was 43.1 µM; with M14 melanoma, 63.4 µM; with T-47D breast, 45.2 µM; in the assay on SR leukemia, 31.2 µM; in the assay with SF-295 CNS, 44.8 µM. Besides, the TGI with DU-145 prostate was over 100 µM; in the assay on UO-31 renal, 33.2 µM; with NCI-H226 lung, 49.9 µM; in the assay on CCRF-CEM leukemia, 96 µM.
As to `CCOC(=O)c1c(C)n([O-])c2cc(F)c(F)cc2[n+]1=O`, the GI50 was 0.105 µM with HL-60(TB) leukemia; 15.4 µM in the assay on KM12 colon; 1.09 µM with M14 melanoma; 1.87 µM in the assay with T-47D breast; 0.0482 µM in the assay with SR leukemia; 1.74 µM with SF-295 CNS. Besides, the GI50 in the assay on DU-145 prostate was 3.27 µM; in the assay on UO-31 renal, 1.44 µM; with NCI-H226 lung it was 1.94 µM; in the assay on CCRF-CEM leukemia it was 1.1 µM. Besides, the TGI in the assay with KM12 colon is 35.6 µM; with M14 melanoma, 2.58 µM; in the assay with T-47D breast it was 3.69 µM; in the assay on SR leukemia it was over 100 µM; with SF-295 CNS it was 3.41 µM; in the assay on DU-145 prostate, 9.01 µM. Moreover, the results for the TGI in the assay with UO-31 renal, in the assay with NCI-H226 lung and in the assay on CCRF-CEM leukemia were 2.85 µM, 3.94 µM and 7.84 µM, respectively.
As to `Clc1nc(Cl)c2ncn(-c3ccccc3)c2n1`, the GI50 in the assay on HL-60(TB) leukemia was 1.96 µM; in the assay with KM12 colon it was 12.8 µM; with M14 melanoma, 1.86 µM; in the assay with T-47D breast, 2.95 µM; in the assay on SR leukemia it was 2.73 µM; in the assay on SF-295 CNS, 10.3 µM. Also, the GI50 was 1.44 µM with DU-145 prostate, 1.63 µM in the assay on UO-31 renal, 12.1 µM in the assay with NCI-H226 lung and 2.7 µM with CCRF-CEM leukemia. The TGI with HL-60(TB) leukemia is 4.21 µM; with KM12 colon, 25.8 µM; in the assay with M14 melanoma, 3.85 µM; with T-47D breast it was 8.63 µM; in the assay with SR leukemia, 9.51 µM; in the assay with SF-295 CNS, 23 µM. Further, the TGI with DU-145 prostate came out at 2.96 µM; in the assay with UO-31 renal it was 3.13 µM; in the assay with NCI-H226 lung, 28.5 µM; in the assay on CCRF-CEM leukemia it was 6.55 µM.
Consider `CCOc1cc(Cl)c(C(C)NC(=O)c2cccc(OC)c2)cc1OCC` (centres undefined), for which the GI50 was 3.96 µM with HL-60(TB) leukemia; 7.19 µM in the assay with KM12 colon; 5.39 µM with M14 melanoma; 7.06 µM with T-47D breast; 3.92 µM in the assay on SR leukemia; 5.99 µM in the assay with SF-295 CNS. For the same compound, the GI50 was 24.8 µM with DU-145 prostate, 13.9 µM in the assay on UO-31 renal, 37.4 µM with NCI-H226 lung and 11.7 µM with CCRF-CEM leukemia. The TGI with HL-60(TB) leukemia was over 100 µM; in the assay on KM12 colon, over 100 µM; in the assay with M14 melanoma, over 100 µM; with T-47D breast, over 100 µM; with SR leukemia, over 100 µM; in the assay on SF-295 CNS it was over 84.5 µM. Also, the TGI with DU-145 prostate, in the assay with UO-31 renal, in the assay with NCI-H226 lung and with CCRF-CEM leukemia was over 100 µM throughout.
Regarding `Cc1cc(O)ccc1C1(c2ccc(O)cc2C)OC(=O)c2ccccc21`, the GI50 in the assay with HL-60(TB) leukemia is 22.8 µM; with KM12 colon it was 18.8 µM; with M14 melanoma, 18.3 µM; in the assay with T-47D breast, 20.2 µM; in the assay on SR leukemia it was 30.3 µM; with SF-295 CNS it was 16.2 µM. Further, the GI50 in the assay on DU-145 prostate was 18 µM; in the assay with UO-31 renal, 18.1 µM; in the assay with NCI-H226 lung, 19.1 µM; with CCRF-CEM leukemia it was 24.4 µM. Further, the TGI in the assay on HL-60(TB) leukemia was 64.2 µM; in the assay with KM12 colon, 37.7 µM; in the assay with M14 melanoma, 37.1 µM; in the assay with T-47D breast, 41.3 µM; in the assay on SR leukemia, over 100 µM; in the assay on SF-295 CNS, 31.7 µM. The TGI came to 31.9 µM with DU-145 prostate, 36.7 µM in the assay on UO-31 renal, 41 µM with NCI-H226 lung and 67.7 µM with CCRF-CEM leukemia.
For the compound `O=C1NC(c2ccc3ccccc3c2)Nc2ccccc21` (centres undefined), the TGI with HL-60(TB) leukemia, in the assay on KM12 colon, in the assay on M14 melanoma, in the assay on T-47D breast, with SR leukemia and with SF-295 CNS was over 100 µM each time. Also, the TGI in the assay with DU-145 prostate, with UO-31 renal, with NCI-H226 lung and in the assay with CCRF-CEM leukemia was over 100 µM in each case.
Turning to `COc1cc2c(Nc3ccc(-c4ccc(N)cc4)cc3)ncnc2c(OC)c1OC`, the GI50 was 2.54 µM with HL-60(TB) leukemia; 0.615 µM with KM12 colon; 0.542 µM in the assay on M14 melanoma; 5.13 µM with T-47D breast; 5.5 µM in the assay with SR leukemia; 1.5 µM with SF-295 CNS. In addition, the GI50 with DU-145 prostate was 18.4 µM; in the assay on UO-31 renal it was 2.07 µM; with NCI-H226 lung, 21 µM; with CCRF-CEM leukemia, 6.09 µM. The TGI with HL-60(TB) leukemia was 20.4 µM; in the assay with KM12 colon, 41.6 µM; with M14 melanoma, over 67.1 µM; with T-47D breast, 86.7 µM; in the assay on SR leukemia it was 84.9 µM; in the assay with SF-295 CNS it was 7.52 µM. Also, the TGI with DU-145 prostate was over 100 µM; in the assay with UO-31 renal, over 76.5 µM; in the assay on NCI-H226 lung, over 100 µM; with CCRF-CEM leukemia, over 100 µM.
`CNC(=O)/C=C/C1=CN2C(=O)c3ccc(C)c(O)c3NC(OC)C2C1` (centres undefined): the TGI in the assay on HL-60(TB) leukemia is 0.865 µM; with KM12 colon, under 0.0183 µM; in the assay with M14 melanoma it was 0.0191 µM; in the assay with T-47D breast, under 0.0489 µM; with SR leukemia, 0.0598 µM; with SF-295 CNS, 1.07 µM. In addition, the TGI with DU-145 prostate is under 0.01 µM; with UO-31 renal, 0.265 µM; in the assay with NCI-H226 lung, 0.0731 µM; in the assay with CCRF-CEM leukemia it was over 4.64 µM.
Take `CC(=O)OC1C(O)C(C)OC(OC2C(OC(=O)C3CCC4C(C3)OC3(CC(OC(=O)/C=C/c5ccccc5)C(C)CO3)C43CO3)OC(C)C(O)C2OC(C)=O)C1O` (centres undefined): the TGI with HL-60(TB) leukemia is 0.0192 µM; in the assay on KM12 colon, 0.0562 µM; in the assay with M14 melanoma, 0.0293 µM; with T-47D breast, 0.0441 µM; with SR leukemia, over 2.5 µM; in the assay with SF-295 CNS, 0.145 µM. Besides, the TGI with DU-145 prostate was found to be 0.0714 µM; with UO-31 renal it was 1.6 µM; with NCI-H226 lung, 0.0522 µM; with CCRF-CEM leukemia, 0.084 µM.

(Values after PubChem BioAssay (NCI).)
